pIC50: −log10 of the molar value.
These molecules were tested against hNAAA (Homo sapiens (Human), UniProt Q02083) (assay: Fluorescence-based NAAA inhibition assay with fluorogenic substrate PAMCA). Details: not given.
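Note: compound preincubated 15 min at room temperature with hNAAA, then PAMCA added at 5 µM, reacted 120 min at 37 °C, AMC release read by fluorescence (ex 360, em 460 nm).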

Sequence of hNAAA (Q02083 29-125): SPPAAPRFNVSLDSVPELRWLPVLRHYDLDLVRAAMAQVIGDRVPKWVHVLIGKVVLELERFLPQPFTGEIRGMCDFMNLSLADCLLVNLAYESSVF
Sequence of hNAAA (Q02083 126-359): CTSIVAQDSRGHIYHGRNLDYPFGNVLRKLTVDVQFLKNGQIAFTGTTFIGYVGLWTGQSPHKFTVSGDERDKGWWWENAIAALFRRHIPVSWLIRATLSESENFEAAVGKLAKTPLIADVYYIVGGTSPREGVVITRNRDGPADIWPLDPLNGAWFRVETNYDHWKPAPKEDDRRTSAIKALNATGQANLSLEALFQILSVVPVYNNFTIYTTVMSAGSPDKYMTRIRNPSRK

Row | pIC50 | Structure (SMILES)
1 | 7.00 to 8.00 | N#CN1CC(OCc2cccc(-c3ccccc3)c2)C1 [Example 66, 3-([1,1′-Biphenyl]-3-ylmethoxy)azetidine-1-carbonitrile]
2 | 7.00 to 8.00 | Cn1cc(-c2ccc(C(OC3CN(C#N)C3)c3ccccc3)cc2)cn1 (centres unmarked) [Example 102, 3-((4-(1-Methyl-1H-pyrazol-4-yl)phenyl)(phenyl)methoxy)azetidine-1-carbonitrile]
3 | 7.00 to 8.00 | COc1ccc(OC)c(-c2ccc(COC3CN(C#N)C3)cc2)c1 [Example 68, 3-((2′,5′-Dimethoxy-[1,1′-biphenyl]-4-yl)methoxy)azetidine-1-carbonitrile]
4 | 7.00 to 8.00 | COc1ccccc1-c1ccc(COC2CN(C#N)C2)cc1 [Example 75, 3-((2′-Methoxy-[1,1′-biphenyl]-4-yl)methoxy)azetidine-1-carbonitrile]
5 | 7.00 to 8.00 | N#CN1CC(OCc2ccc(-c3ccccc3)cc2)C1 [Example 64, 3-([1,1′-Biphenyl]-4-ylmethoxy)azetidine-1-carbonitrile]
6 | 7.00 to 8.00 | COc1cccc(-c2ccc(C(OC3CN(C#N)C3)c3ccccc3)cc2)c1 (centres unmarked) [Example 100, 3-((3′-Methoxy-[1,1′-biphenyl]-4-yl)(phenyl)methoxy)azetidine-1-carbonitrile]
7 | 7.00 to 8.00 | COc1cccc(-c2ccc(COC3CN(C#N)C3)c(OC)c2)c1 [Example 80, 3-((3,3′-Dimethoxy-[1,1′-biphenyl]-4-yl)methoxy)azetidine-1-carbonitrile]
8 | 7.00 to 8.00 | N#CN1CC(OC(c2ccccc2)c2ccc(Br)cc2)C1 (centres unmarked) [Example 99, 3-((4-Bromophenyl)(phenyl)methoxy)azetidine-1-carbonitrile]
9 | 7.00 to 8.00 | N#Cc1ccc(-c2cc(Oc3ccccc3)ccc2COC2CN(C#N)C2)cc1 [Example 92, 3-((4′-Cyano-5-phenoxy-[1,1′-biphenyl]-2-yl)methoxy)azetidine-1-carbonitrile]
10 | 7.00 to 8.00 | COc1ncccc1-c1ccc(COC2CN(C#N)C2)cc1 [Example 74, 3-((4-(2-Methoxypyridin-3-yl)benzyl)oxy)azetidine-1-carbonitrile]
11 | 7.00 to 8.00 | N#CN1CC(OCc2ccc(Oc3ccccc3)cc2)C1 [Example 81, 3-((4-Phenoxybenzyl)oxy)azetidine-1-carbonitrile]
12 | 7.00 to 8.00 | N#Cc1ccccc1-c1cc(Oc2ccccc2)ccc1COC1CN(C#N)C1 [Example 93, 3-((2′-Cyano-5-phenoxy-[1,1′-biphenyl]-2-yl)methoxy)azetidine-1-carbonitrile]
13 | 7.00 to 8.00 | COc1ccc(-c2ccc(COC3CN(C#N)C3)cc2)cc1 [Example 63, 3-((4′-Methoxy-[1,1′-biphenyl]-4-yl)methoxy)azetidine-1-carbonitrile]

Row | Structure (SMILES) | pIC50
14 | COc1cccc(-c2ccc(COC3CN(C#N)C3)cc2)c1 [Example 67, 3-((3′-Methoxy-[1,1′-biphenyl]-4-yl)methoxy)azetidine-1-carbonitrile] | 7.00 to 8.00
15 | COc1ccc(-c2ccc(O[C@H]3C[C@@H](N=C=S)C3)cc2)cc1F [Example 52, 3-Fluoro-4′-((1S,3S)-3-isothiocyanatocyclobutoxy)-4-methoxy-1,1′-biphenyl] | 7.00 to 8.00
16 | S=C=NCCCCCN1CCC(Cc2ccccc2)CC1 [Example 27, 4-Benzyl-1-(5-isothiocyanatopentyl)piperidine] | 7.00 to 8.00
17 | S=C=N[C@H]1C[C@@H](OCc2ccc(Oc3ccccc3)cc2Br)C1 [Example 49, 2-Bromo-1-(((1S,3S)-3-isothiocyanatocyclobutoxy)methyl)-4-phenoxybenzene] | 6.00 to 6.96
18 | CN(Cc1ccc(-c2ccccc2)cc1)[C@H]1C[C@@H](N=C=S)C1 [Example 54, (1S,3S)—N-([1,1′-biphenyl]-4-ylmethyl)-3-isothiocyanato-N-methylcyclobutan-1-amine] | < 6.00
19 | CC(C)Oc1ccc(-c2ccc(CO[C@H]3C[C@@H](N=C=S)C3)c(F)c2)cc1F [Example 37, 3,3′-Difluoro-4-isopropoxy-4′-(((1S,3S)-3-isothiocyanatocyclobutoxy)methyl)-1,1′-biphenyl] | 6.00 to 6.96

Same assay, conditions: read-out: NAAA Inhibition IC50 μM; purified hNAAA, PAMCA 5 μM, pH 4.5

Row | Structure (SMILES) | IC50 [µM]
20 | N#Cc1ncc(OCCCCCc2ccccc2)cn1 [Example 116, 5-((5-phenylpentyl)oxy)pyrimidine-2-carbonitrile] | > 1
21 | COc1ncccc1-c1ccc(COC2CC(N=C=S)C2)c(F)c1 [Example 41, 3-(3-Fluoro-4-(((1R,3R)-3-isothiocyanatocyclobutoxy)methyl)phenyl)-2-methoxypyridine] | 0.11 to 1
22 | S=C=NCCCCc1ccccc1 [Example 1, (4-isothiocyanatobutyl)benzene] | > 1
23 | S=C=NCCCCCCCc1ccc2ccccc2c1 [Example 5, 2-(7-Isothiocyanatoheptyl)naphthalene] | > 1
24 | N#C[C@H]1C[C@H](OCc2ccc(-c3ccccc3)cc2)C1 [Example 107, (1R,3R)-3-([1,1′-Biphenyl]-4-ylmethoxy)cyclobutane-1-carbonitrile] | > 1
25 | CCCCCCCCCCCCCCCC(=O)NCCN=C=S [Example 6, N-(2-isothiocyanatoethyl)palmitamide] | > 1
26 | FC(F)(F)c1cccc(-c2ccc(CO[C@H]3Cc4ccccc4[C@H]3N=C=S)cc2)c1 [Example 61, (1R,2S)-1-isothiocyanato-2-((3′-(trifluoromethyl)-[1,1′-biphenyl]-4-yl)methoxy)-2,3-dihydro-1H-indene] | > 1
27 | FC(F)(F)c1cccc(-c2ccc(COC3CCCC(N=C=S)C3)cc2)c1 (centres unmarked) [Example 58, 4′-(((3-Isothiocyanatocyclohexyl)oxy)methyl)-3-(trifluoromethyl)-1,1′-biphenyl] | > 1
28 | COc1ccc(-c2ccc(COC3CC(N=C=S)C3)nc2)cc1F [Example 42, 5-(3-Fluoro-4-methoxyphenyl)-2-(((1R,3R)-3-isothiocyanatocyclobutoxy)methyl)pyridine] | 0.01 to 0.1
29 | N#Cc1ccc(OCc2ccc(Oc3ccccc3)cc2Br)cn1 [Example 110, 5-((2-Bromo-4-phenoxybenzyl)oxy)picolinonitrile] | > 1
30 | S=C=NCCN1CCC(Cc2ccccc2)CC1 [Example 11, 4-Benzyl-1-(2-isothiocyanatoethyl)piperidine] | > 1
31 | Cc1cncc(Oc2ccc(CN=C=S)cc2)n1 [Example 14, 2-(4-(Isothiocyanatomethyl)phenoxy)-6-methylpyrazine] | > 1
32 | Cc1noc(C)c1-c1ccc(COC2CC(N=C=S)C2)c(F)c1 [Example 45, 4-(3-Fluoro-4-(((1R,3R)-3-isothiocyanatocyclobutoxy)methyl)phenyl)-3,5-dimethylisoxazole] | > 1
33 | COc1ccc(-c2ccc(CO[C@@H]3Cc4ccccc4[C@@H]3N=C=S)cc2)cc1F [Example 62, (1S,2R)-2-((3′-fluoro-4′-methoxy-[1,1′-biphenyl]-4-yl)methoxy)-1-isothiocyanato-2,3-dihydro-1H-indene] | > 1
34 | CN(Cc1ccc(-c2ccc3c(c2)OCO3)cc1)C1CC(N=C=S)C1 [Example 55, (1R,3R)—N-(4-(benzo[d][1,3]dioxol-5-yl)benzyl)-3-isothiocyanato-N-methylcyclobutan-1-amine] | > 1
35 | Fc1cc(-c2cccc(C(F)(F)F)c2)ccc1COC1CC(N=C=S)C1 [Example 47, 3-Fluoro-4-(((1R,3R)-3-isothiocyanatocyclobutoxy)methyl)-3′-(trifluoromethyl)-1,1′-biphenyl] | 0.01 to 0.1

From US9963444B2, “N-acylethanolamine hydrolyzing acid amidase (NAAA) inhibitors and their use thereof” (Northeastern University, priority 2014, dated 2018)
